≈ marks a conversion by molar mass, not a printed value. Peptide text beside a SMILES is read from it.
Key:
[1] = Hemolytic activity in human Red blood cell assessed as hemolysis incubated for 1 hrs by microplate reader based analysis; type: toxicity; conditions: erythrocyte
Staphylococcus aureus [2] = assay: Antimicrobial activity against multi-drug resistant Staphylococcus aureus assessed as reduction in bacterial growth by broth dilution method; type: functional
Klebsiella pneumoniae = assay: Antimicrobial activity against multi-drug resistant Klebsiella pneumoniae assessed as reduction in bacterial growth by broth dilution method; type: functional
Enterococcus faecalis = assay: Antimicrobial activity against multi-drug resistant Enterococcus faecalis assessed as reduction in bacterial growth by broth dilution method; type: functional
[3] = tested on: Staphylococcus epidermidis; assay: Antimicrobial activity against multi-drug resistant Staphylococcus epidermidis assessed as reduction in bacterial growth by broth dilution method; type: functional
Escherichia coli [4] = assay: Antimicrobial activity against Escherichia coli ATCC 25922 assessed as reduction in bacterial growth by broth dilution method; type: functional
Staphylococcus aureus [5] = assay: Antimicrobial activity against Staphylococcus aureus ATCC 25923 assessed as reduction in bacterial growth by broth dilution method; type: functional
Escherichia coli [6] = assay: Antimicrobial activity against multi-drug resistant Escherichia coli assessed as reduction in bacterial growth by broth dilution method; type: functional
Acinetobacter baumannii = assay: Antimicrobial activity against multi-drug resistant Acinetobacter baumannii assessed as reduction in bacterial growth by broth dilution method; type: functional

| Structure (SMILES) | HC10 [1] [µM] | MIC (Staphylococcus aureus [2]) [µM] | MIC (Klebsiella pneumoniae) [µM] | MIC (Enterococcus faecalis) [µM] | MIC [3] [µM] | MIC (Escherichia coli [4]) [µM] | MIC (Staphylococcus aureus [5]) [µM] | MIC (Escherichia coli [6]) [µM] | MIC (Acinetobacter baumannii) [µM] |
| --- | --- | --- | --- | --- | --- | --- | --- | --- | --- |
| NCCCC[C@H](NC(=O)[C@H](Cc1c[nH]c2ccccc12)NC(=O)[C@H](CCCCN)NC(=O)[C@H](Cc1c[nH]c2ccccc12)NC(=O)[C@H](CCCCN)NC(=O)[C@@H]1CCCN1C(=O)[C@H](Cc1c[nH]c2ccccc12)NC(=O)[C@H](Cc1c[nH]c2ccccc12)NC(=O)[C@H](Cc1c[nH]c2ccccc12)NC(=O)[C@@H]1CCCN1C(=O)[C@H](CCCCN)NC(=O)[C@H](Cc1c[nH]c2ccccc12)NC(=O)[C@H](CCCCN)NC(=O)[C@H](Cc1c[nH]c2ccccc12)NC(=O)[C@@H](N)CCCCN)C(N)=O (H-KWKWKPWWWPKWKWK-NH2) | 64.03 | 4 (≈ 9.14 µg/mL) | 4 (≈ 9.14 µg/mL) | 4 (≈ 9.14 µg/mL) | 4 (≈ 9.14 µg/mL) | 4 (≈ 9.14 µg/mL) | 4 (≈ 9.14 µg/mL) | 4 (≈ 9.14 µg/mL) | 4 (≈ 9.14 µg/mL) |
| CC[C@H](C)[C@H](NC(=O)[C@H](CCCCN)NC(=O)[C@@H](NC(=O)[C@@H]1CCCN1C(=O)[C@H](Cc1c[nH]c2ccccc12)NC(=O)[C@H](Cc1c[nH]c2ccccc12)NC(=O)[C@H](Cc1c[nH]c2ccccc12)NC(=O)[C@@H]1CCCN1C(=O)[C@@H](NC(=O)[C@H](CCCCN)NC(=O)[C@@H](NC(=O)[C@@H](N)CCCCN)[C@@H](C)CC)[C@@H](C)CC)[C@@H](C)CC)C(=O)N[C@@H](CCCCN)C(N)=O (H-KIKIPWWWPIKIK-NH2) | > 256 | 4 (≈ 6.94 µg/mL) | 32 (≈ 55.5 µg/mL) | 8 (≈ 13.9 µg/mL) | 16 (≈ 27.8 µg/mL) | 8 (≈ 13.9 µg/mL) | 4 (≈ 6.94 µg/mL) | 8 (≈ 13.9 µg/mL) | 16 (≈ 27.8 µg/mL) |
| CC[C@H](C)[C@H](NC(=O)[C@H](CCCCN)NC(=O)[C@@H](NC(=O)[C@H](CCCCN)NC(=O)[C@@H](NC(=O)[C@H](Cc1ccccc1)NC(=O)[C@@H]1CCCN1C(=O)[C@H](Cc1c[nH]c2ccccc12)NC(=O)[C@H](Cc1c[nH]c2ccccc12)NC(=O)[C@H](Cc1c[nH]c2ccccc12)NC(=O)[C@@H]1CCCN1C(=O)[C@H](Cc1ccccc1)NC(=O)[C@@H](NC(=O)[C@H](CCCCN)NC(=O)[C@@H](NC(=O)[C@H](CCCCN)NC(=O)[C@@H](NC(=O)[C@@H](N)CCCCN)[C@@H](C)CC)[C@@H](C)CC)[C@@H](C)CC)[C@@H](C)CC)[C@@H](C)CC)C(=O)N[C@@H](CCCCN)C(N)=O (H-KIKIKIFPWWWPFIKIKIK-NH2) | 7.28 | 128 (≈ 322 µg/mL) | 64 (≈ 161 µg/mL) | 64 (≈ 161 µg/mL) | 128 (≈ 322 µg/mL) | 128 (≈ 322 µg/mL) | 128 (≈ 322 µg/mL) | 128 (≈ 322 µg/mL) | 128 (≈ 322 µg/mL) |
| CC[C@H](C)[C@H](NC(=O)[C@H](CCCCN)NC(=O)[C@@H](NC(=O)[C@H](CCCCN)NC(=O)[C@H](Cc1ccccc1)NC(=O)[C@@H]1CCCN1C(=O)[C@H](Cc1c[nH]c2ccccc12)NC(=O)[C@H](Cc1c[nH]c2ccccc12)NC(=O)[C@H](Cc1c[nH]c2ccccc12)NC(=O)[C@@H]1CCCN1C(=O)[C@H](Cc1ccccc1)NC(=O)[C@H](CCCCN)NC(=O)[C@@H](NC(=O)[C@H](CCCCN)NC(=O)[C@@H](NC(=O)[C@@H](N)CCCCN)[C@@H](C)CC)[C@@H](C)CC)[C@@H](C)CC)C(=O)N[C@@H](CCCCN)C(N)=O (H-KIKIKFPWWWPFKIKIK-NH2) | 29.44 | 4 (≈ 9.14 µg/mL) | 32 (≈ 73.2 µg/mL) | 4 (≈ 9.14 µg/mL) | 8 (≈ 18.3 µg/mL) | 16 (≈ 36.6 µg/mL) | 4 (≈ 9.14 µg/mL) | 8 (≈ 18.3 µg/mL) | 8 (≈ 18.3 µg/mL) |
| CC[C@H](C)[C@H](NC(=O)[C@H](CCCCN)NC(=O)[C@@H](NC(=O)[C@H](CCCCN)NC(=O)[C@@H](NC(=O)[C@@H]1CCCN1C(=O)[C@H](Cc1c[nH]c2ccccc12)NC(=O)[C@H](Cc1c[nH]c2ccccc12)NC(=O)[C@H](Cc1c[nH]c2ccccc12)NC(=O)[C@@H]1CCCN1C(=O)[C@@H](NC(=O)[C@H](CCCCN)NC(=O)[C@@H](NC(=O)[C@H](CCCCN)NC(=O)[C@@H](NC(=O)[C@@H](N)CCCCN)[C@@H](C)CC)[C@@H](C)CC)[C@@H](C)CC)[C@@H](C)CC)[C@@H](C)CC)C(=O)N[C@@H](CCCCN)C(N)=O (H-KIKIKIPWWWPIKIKIK-NH2) | 33.38 | 8 (≈ 17.7 µg/mL) | 16 (≈ 35.5 µg/mL) | 8 (≈ 17.7 µg/mL) | 8 (≈ 17.7 µg/mL) | 16 (≈ 35.5 µg/mL) | 4 (≈ 8.87 µg/mL) | 16 (≈ 35.5 µg/mL) | 64 (≈ 142 µg/mL) |
| NCCCC[C@H](NC(=O)[C@H](Cc1c[nH]c2ccccc12)NC(=O)[C@H](CCCCN)NC(=O)[C@H](Cc1c[nH]c2ccccc12)NC(=O)[C@H](Cc1ccccc1)NC(=O)[C@@H]1CCCN1C(=O)[C@H](Cc1c[nH]c2ccccc12)NC(=O)[C@H](Cc1c[nH]c2ccccc12)NC(=O)[C@H](Cc1c[nH]c2ccccc12)NC(=O)[C@@H]1CCCN1C(=O)[C@H](Cc1ccccc1)NC(=O)[C@H](Cc1c[nH]c2ccccc12)NC(=O)[C@H](CCCCN)NC(=O)[C@H](Cc1c[nH]c2ccccc12)NC(=O)[C@@H](N)CCCCN)C(N)=O (H-KWKWFPWWWPFWKWK-NH2) | 7.46 | 4 (≈ 9.29 µg/mL) | 256 (≈ 594 µg/mL) | 16 (≈ 37.1 µg/mL) | 16 (≈ 37.1 µg/mL) | 32 (≈ 74.3 µg/mL) | 4 (≈ 9.29 µg/mL) | 64 (≈ 149 µg/mL) | 64 (≈ 149 µg/mL) |
| CC[C@H](C)[C@H](N)C(=O)N[C@@H](CCCCN)C(=O)N[C@H](C(=O)N[C@@H](CCCCN)C(=O)N[C@H](C(=O)N[C@@H](CCCCN)C(=O)N[C@@H](Cc1ccccc1)C(=O)N1CCC[C@H]1C(=O)N[C@@H](Cc1c[nH]c2ccccc12)C(=O)N[C@@H](Cc1c[nH]c2ccccc12)C(=O)N[C@@H](Cc1c[nH]c2ccccc12)C(=O)N1CCC[C@H]1C(=O)N[C@@H](Cc1ccccc1)C(=O)N[C@@H](CCCCN)C(=O)N[C@H](C(=O)N[C@@H](CCCCN)C(=O)N[C@H](C(=O)N[C@@H](CCCCN)C(=O)N[C@H](C(N)=O)[C@@H](C)CC)[C@@H](C)CC)[C@@H](C)CC)[C@@H](C)CC)[C@@H](C)CC (H-IKIKIKFPWWWPFKIKIKI-NH2) | 6.56 | 64 (≈ 161 µg/mL) | 64 (≈ 161 µg/mL) | 128 (≈ 322 µg/mL) | 128 (≈ 322 µg/mL) | 128 (≈ 322 µg/mL) | 128 (≈ 322 µg/mL) | 128 (≈ 322 µg/mL) | 128 (≈ 322 µg/mL) |
| NCCCC[C@H](NC(=O)[C@H](Cc1ccccc1)NC(=O)[C@H](CCCCN)NC(=O)[C@H](Cc1ccccc1)NC(=O)[C@H](CCCCN)NC(=O)[C@H](Cc1ccccc1)NC(=O)[C@@H]1CCCN1C(=O)[C@H](Cc1c[nH]c2ccccc12)NC(=O)[C@H](Cc1c[nH]c2ccccc12)NC(=O)[C@H](Cc1c[nH]c2ccccc12)NC(=O)[C@@H]1CCCN1C(=O)[C@H](Cc1ccccc1)NC(=O)[C@H](CCCCN)NC(=O)[C@H](Cc1ccccc1)NC(=O)[C@H](CCCCN)NC(=O)[C@H](Cc1ccccc1)NC(=O)[C@@H](N)CCCCN)C(N)=O (H-KFKFKFPWWWPFKFKFK-NH2) | 6.39 | 8 (≈ 19.4 µg/mL) | 16 (≈ 38.8 µg/mL) | 4 (≈ 9.69 µg/mL) | 4 (≈ 9.69 µg/mL) | 8 (≈ 19.4 µg/mL) | 8 (≈ 19.4 µg/mL) | 8 (≈ 19.4 µg/mL) | 4 (≈ 9.69 µg/mL) |
| NCCCC[C@H](NC(=O)[C@H](Cc1c[nH]c2ccccc12)NC(=O)[C@H](CCCCN)NC(=O)[C@H](Cc1c[nH]c2ccccc12)NC(=O)[C@H](CCCCN)NC(=O)[C@H](Cc1ccccc1)NC(=O)[C@@H]1CCCN1C(=O)[C@H](Cc1c[nH]c2ccccc12)NC(=O)[C@H](Cc1c[nH]c2ccccc12)NC(=O)[C@H](Cc1c[nH]c2ccccc12)NC(=O)[C@@H]1CCCN1C(=O)[C@H](Cc1ccccc1)NC(=O)[C@H](CCCCN)NC(=O)[C@H](Cc1c[nH]c2ccccc12)NC(=O)[C@H](CCCCN)NC(=O)[C@H](Cc1c[nH]c2ccccc12)NC(=O)[C@@H](N)CCCCN)C(N)=O (H-KWKWKFPWWWPFKWKWK-NH2) | 2.1 | 8 (≈ 20.6 µg/mL) | 8 (≈ 20.6 µg/mL) | 8 (≈ 20.6 µg/mL) | 8 (≈ 20.6 µg/mL) | 8 (≈ 20.6 µg/mL) | 4 (≈ 10.3 µg/mL) | 4 (≈ 10.3 µg/mL) | 8 (≈ 20.6 µg/mL) |
| CC[C@H](C)[C@H](N)C(=O)N[C@@H](CCCCN)C(=O)N[C@H](C(=O)N[C@@H](CCCCN)C(=O)N1CCC[C@H]1C(=O)N[C@@H](Cc1c[nH]c2ccccc12)C(=O)N[C@@H](Cc1c[nH]c2ccccc12)C(=O)N[C@@H](Cc1c[nH]c2ccccc12)C(=O)N1CCC[C@H]1C(=O)N[C@@H](CCCCN)C(=O)N[C@H](C(=O)N[C@@H](CCCCN)C(=O)N[C@H](C(N)=O)[C@@H](C)CC)[C@@H](C)CC)[C@@H](C)CC (H-IKIKPWWWPKIKI-NH2) | > 256 | 8 (≈ 13.9 µg/mL) | 64 (≈ 111 µg/mL) | 16 (≈ 27.8 µg/mL) | 16 (≈ 27.8 µg/mL) | 16 (≈ 27.8 µg/mL) | 8 (≈ 13.9 µg/mL) | 16 (≈ 27.8 µg/mL) | 16 (≈ 27.8 µg/mL) |
| NCCCC[C@H](NC(=O)[C@H](Cc1c[nH]c2ccccc12)NC(=O)[C@H](CCCCN)NC(=O)[C@@H]1CCCN1C(=O)[C@H](Cc1c[nH]c2ccccc12)NC(=O)[C@H](Cc1c[nH]c2ccccc12)NC(=O)[C@H](Cc1c[nH]c2ccccc12)NC(=O)[C@@H]1CCCN1C(=O)[C@H](CCCCN)NC(=O)[C@H](Cc1c[nH]c2ccccc12)NC(=O)[C@H](CCCCN)NC(=O)[C@@H](N)Cc1c[nH]c2ccccc12)C(=O)N[C@@H](Cc1c[nH]c2ccccc12)C(N)=O (H-WKWKPWWWPKWKW-NH2) | 28.58 | 4 (≈ 8.11 µg/mL) | 8 (≈ 16.2 µg/mL) | 2 (≈ 4.05 µg/mL) | 2 (≈ 4.05 µg/mL) | 8 (≈ 16.2 µg/mL) | 4 (≈ 8.11 µg/mL) | 8 (≈ 16.2 µg/mL) | 8 (≈ 16.2 µg/mL) |
| CC(C)C[C@H](NC(=O)[C@H](CCCCN)NC(=O)[C@H](CC(C)C)NC(=O)[C@H](CCCCN)NC(=O)[C@H](Cc1ccccc1)NC(=O)[C@@H]1CCCN1C(=O)[C@H](Cc1c[nH]c2ccccc12)NC(=O)[C@H](Cc1c[nH]c2ccccc12)NC(=O)[C@H](Cc1c[nH]c2ccccc12)NC(=O)[C@@H]1CCCN1C(=O)[C@H](Cc1ccccc1)NC(=O)[C@H](CCCCN)NC(=O)[C@H](CC(C)C)NC(=O)[C@H](CCCCN)NC(=O)[C@H](CC(C)C)NC(=O)[C@@H](N)CCCCN)C(=O)N[C@@H](CCCCN)C(N)=O (H-KLKLKFPWWWPFKLKLK-NH2) | 38.84 | 4 (≈ 9.14 µg/mL) | 8 (≈ 18.3 µg/mL) | 8 (≈ 18.3 µg/mL) | 4 (≈ 9.14 µg/mL) | 8 (≈ 18.3 µg/mL) | 8 (≈ 18.3 µg/mL) | 8 (≈ 18.3 µg/mL) | 8 (≈ 18.3 µg/mL) |
